Source: ChEMBL document CHEMBL1157997, “A new biologically active acylated triterpene saponin from Silene fortunei” (J Nat Prod, 1999)

Assays:
[1] = Cytotoxicity against human neutrophil granulocytes upto 100 ug/mL
[2] = Enhancement of human neutrophil granulocytes phagocytosis at 10 to 100 ug/mL by flow cytometric analysis; type: functional

Structure (SMILES): CC(=O)O[C@@H]1[C@H](O[C@@H]2O[C@H](CO)[C@@H](O)[C@H](O)[C@H]2O)[C@@H](O[C@@H]2O[C@@H](C)[C@H](O[C@@H]3OC[C@@H](O)[C@H](O)[C@H]3O[C@@H]3OC[C@H](O)[C@H](O)[C@H]3O[C@@H]3OC[C@H](O)[C@H](O)[C@H]3O)[C@@H](O)[C@H]2O)[C@H](OC(=O)[C@]23CCC(C)(C)C[C@H]2C2=CC[C@@H]4[C@@]5(C)CC[C@H](O[C@@H]6O[C@H](C(=O)O)[C@@H](O)[C@H](O)[C@H]6O[C@@H]6O[C@H](CO)[C@H](O)[C@H](O)[C@H]6O)[C@@](C)(C=O)C5=CC[C@@]4(C)[C@]2(C)C[C@H]3O)O[C@@H]1C
- Activity [1]: Non-toxic
- Activity [2]: 24%
